In ChEMBL document CHEMBL1833968, “Synthesis of novel triplet drugs with 1,3,5-trioxazatriquinane skeletons and their pharmacologies. Part 2: Synthesis of novel triplet drugs with the epoxymethano structure (capped homotriplet)” (Bioorg Med Chem Lett, 2011):
Active and inactive are the calls of the source. The calls are words filed in the database; no cut-off is given here.

Columns and labels:
[1] = molecular target: Mu-type opioid receptor (Mus musculus, UniProt P42866); assay: Displacement of [3H]DAMGO from mouse mu opioid receptor in whole brain without cerebellum
Chain of Mu-type opioid receptor (P42866 whole entry): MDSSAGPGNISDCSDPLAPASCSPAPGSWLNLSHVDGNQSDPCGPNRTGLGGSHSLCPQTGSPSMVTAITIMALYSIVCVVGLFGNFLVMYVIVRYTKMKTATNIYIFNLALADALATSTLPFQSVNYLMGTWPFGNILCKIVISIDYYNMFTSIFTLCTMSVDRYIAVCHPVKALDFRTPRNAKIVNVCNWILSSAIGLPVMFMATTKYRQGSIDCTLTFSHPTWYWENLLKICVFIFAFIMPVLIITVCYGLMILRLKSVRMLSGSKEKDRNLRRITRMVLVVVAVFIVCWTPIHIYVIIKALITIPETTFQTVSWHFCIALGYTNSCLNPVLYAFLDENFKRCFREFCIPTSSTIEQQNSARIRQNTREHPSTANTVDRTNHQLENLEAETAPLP

[2] = Selectivity ratio of Ki for guinea pig kappa opioid receptor to mouse mu opioid receptor
[3] = molecular target: Delta-type opioid receptor (Mus musculus, UniProt P32300); assay: Displacement of [3H]DPDPE from mouse delta opioid receptor in whole brain without cerebellum
Chain of Delta-type opioid receptor (P32300 whole entry): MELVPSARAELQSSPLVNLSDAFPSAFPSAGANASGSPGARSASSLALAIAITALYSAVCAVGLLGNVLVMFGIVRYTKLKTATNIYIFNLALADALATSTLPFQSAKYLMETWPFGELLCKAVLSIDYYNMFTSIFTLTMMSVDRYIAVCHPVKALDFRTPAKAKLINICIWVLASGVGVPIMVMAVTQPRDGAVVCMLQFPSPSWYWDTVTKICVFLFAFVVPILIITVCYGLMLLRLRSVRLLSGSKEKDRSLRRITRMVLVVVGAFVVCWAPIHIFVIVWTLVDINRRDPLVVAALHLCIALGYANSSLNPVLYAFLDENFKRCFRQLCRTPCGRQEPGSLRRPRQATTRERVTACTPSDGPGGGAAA

[4] = molecular target: Kappa-type opioid receptor (Cavia porcellus, UniProt P41144); assay: Displacement of [3H]U69,593 from guinea pig kappa opioid receptor in cerebellum
Chain of Kappa-type opioid receptor (P41144 whole entry): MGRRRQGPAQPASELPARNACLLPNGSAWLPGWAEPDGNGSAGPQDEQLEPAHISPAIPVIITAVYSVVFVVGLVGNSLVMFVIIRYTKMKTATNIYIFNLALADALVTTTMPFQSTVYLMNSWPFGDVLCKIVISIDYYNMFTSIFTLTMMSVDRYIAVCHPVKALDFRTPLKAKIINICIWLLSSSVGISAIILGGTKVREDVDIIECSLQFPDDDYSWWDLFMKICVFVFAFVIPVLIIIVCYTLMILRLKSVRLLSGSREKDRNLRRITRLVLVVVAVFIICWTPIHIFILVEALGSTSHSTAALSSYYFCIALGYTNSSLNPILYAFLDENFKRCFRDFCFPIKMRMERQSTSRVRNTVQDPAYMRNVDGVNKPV

[5] = organism: Mus musculus; assay: Selectivity ratio of Ki for mouse delta opioid receptor to mouse mu receptor
[6] = test system: Mus musculus; assay: Antinociceptive activity in sc dosed mouse assessed as inhibition of acetic acid-induced writhing administered 15 mins before acetic acid challenge measured after 10 mins relative to control; assay type: functional
[7] = test system: Mus musculus; assay: Ratio of morphine ED50 to compound ED50 for antinociceptive activity in sc dosed mouse assessed as inhibition of acetic acid-induced writhing administered 15 mins before acetic acid challenge measured after 10 mins; assay type: functional

SMILES | Ki [1] | Ratio Ki [2] | Ki [3] | Ki [4] | Ratio Ki [5] | inhibition [6] | Ratio ED50 [7] | ED50 [6]
Oc1ccc2c3c1O[C@H]1[C@]4(CC[C@@]5(O)[C@@H](C2)N(CC2CCC2)CC[C@]315)O[C@H]1CO[C@@H]2N1[C@H]4O[C@]21CC[C@@]2(O)[C@H]3Cc4ccc(O)c5c4[C@@]2(CCN3CC2CCC2)[C@H]1O5 | 2.6 nM | 67.7 | 50 nM | 176 nM | 19.2 |  |  | 
Oc1ccc2c3c1O[C@H]1[C@]4(CC[C@@]5(O)[C@@H](C2)N(CC2CC2)CC[C@]315)O[C@H]1CO[C@@H]2N1[C@H]4O[C@]21CC[C@@]2(O)[C@H]3Cc4ccc(O)c5c4[C@@]2(CCN3CC2CC2)[C@H]1O5 | 0.48 nM | 5.73 | 16.2 nM | 2.75 nM | 33.6 |  |  | 
CC(C)CN1CC[C@]23c4c5ccc(O)c4O[C@H]2[C@]2(CC[C@@]3(O)[C@H]1C5)O[C@H]1CO[C@@H]3N1[C@H]2O[C@]31CC[C@@]2(O)[C@H]3Cc4ccc(O)c5c4[C@@]2(CCN3CC(C)C)[C@H]1O5 | 25.3 nM | 4.7 | > 1000 nM | 119 nM |  |  |  | 
C=CCN1CC[C@]23c4c5ccc(O)c4O[C@H]2C(=O)CC[C@@]3(O)[C@H]1C5 |  |  |  |  |  | inactive |  | 
CN1CC[C@]23c4c5ccc(O)c4O[C@H]2[C@]2(CC[C@@]3(O)[C@H]1C5)O[C@H]1CO[C@@H]3N1[C@H]2O[C@]31CC[C@@]2(O)[C@H]3Cc4ccc(O)c5c4[C@@]2(CCN3C)[C@H]1O5 | 2.09 nM | 161 | 52.9 nM | 337 nM | 25.3 | Dose-dependent effect | 4 | 0.14 mg/kg
Oc1ccc2c3c1O[C@H]1[C@]4(CC[C@H]5[C@@H](C2)N(CC2CC2)CC[C@@]351)O[C@H]1CO[C@@H]2N1[C@H]4O[C@]21CC[C@H]2[C@H]3Cc4ccc(O)c5c4[C@@]2(CCN3CC2CC2)[C@H]1O5 | 0.719 nM | 8.84 | 7.8 nM | 6.36 nM | 10.8 |  |  | 
Oc1ccc2c(c1)[C@]13CCN(CC4CC4)[C@H](C2)[C@]1(O)CC[C@@]1(C3)O[C@H]2CO[C@@H]3N2[C@H]1O[C@]31CC[C@@]2(O)[C@H]3Cc4ccc(O)cc4[C@@]2(CCN3CC2CC2)C1 | 0.771 nM | 11.2 | 5.98 nM | 8.67 nM | 7.76 |  |  | 
Oc1ccc2c3c1O[C@@H]1[C@]34CCN(CC3CC3)[C@H](C2)[C@]4(O)CC[C@@]12C=N[C@@H]([C@]1(O)CC[C@@]3(O)[C@H]4Cc5ccc(O)c6c5[C@@]3(CCN4CC3CC3)[C@H]1O6)O2 | 1.03 nM | 1.61 | 39.6 nM | 1.66 nM | 38.4 |  |  | 
Oc1ccc2c3c1O[C@@H]1[C@]34CCN(CC3CC3)[C@H](C2)[C@]4(O)CC[C@@]12C=N[C@H]([C@]1(O)CC[C@@]3(O)[C@H]4Cc5ccc(O)c6c5[C@@]3(CCN4CC3CC3)[C@H]1O6)O2 | 1.9 nM | 0.61 | 53.7 nM | 1.16 nM | 28.3 |  |  | 
Oc1ccc2c3c1O[C@H]1[C@]4(CC[C@@]5(O)[C@@H](C2)N(CC2CC2)CC[C@]315)O[C@@H]1CO[C@H]2N1[C@@H]4O[C@]21CC[C@@]2(O)[C@H]3Cc4ccc(O)c5c4[C@@]2(CCN3CC2CC2)[C@H]1O5 | 38.2 nM | 6.47 | > 1000 nM | 247 nM |  |  |  | 
